This note sets out measurements from patent publication US10351827B2, “Method for differentiating induced pluripotent stem cells into renal proximal tubular cell-like cells” (priority 2013, dated 2019).

The test system of the data set is iPS(Foreskin)-4-derived d8 HPTC-like cells.
[1] abbreviates: 1 μg/ml, overnight (16 h), qPCR, normalized to vehicle control (=1), mean +/- s.d., n=3.
The mark [2] stands for this setting: 10 μg/ml, overnight (16 h), qPCR, normalized to vehicle control (=1), mean +/- s.d., n=3.
Where [3] appears, read: 100 μg/ml, overnight (16 h), qPCR, normalized to vehicle control (=1), mean +/- s.d., n=3.
Setting [4] is: 1,000 μg/ml, overnight (16 h), qPCR, normalized to vehicle control (=1), mean +/- s.d., n=3.

Like-named read-outs stand apart in the source and are kept apart here.

As to `O=c1[nH]cc(F)c(=O)[nH]1` [5-Fluorouracil], the “IL6 Expression Levels” value is, setting by setting: (human, 16 h, 1 μg/ml) 6.2 ± 0.7; (human, 16 h, 10 μg/ml) 6.4 ± 0.3; (human, 16 h, 100 μg/ml) 9.2 ± 1.2; (human, 16 h, 1000 μg/ml) 1.1 ± 0.2. In addition, the “IL8 Expression Levels” value runs as follows: (human, 16 h, 1 μg/ml) 7.4 ± 1.4; (human, 16 h, 10 μg/ml) 9.2 ± 1.4; (human, 16 h, 100 μg/ml) 18.3 ± 2.2; (human, 16 h, 1000 μg/ml) 5.7 ± 0.5.

For `C[C@H]1O[C@H](O[C@H]2[C@H](O)[C@@H](O)[C@@H](O[C@H]3[C@H](O)[C@@H](O)C(O)O[C@@H]3CO)O[C@@H]2CO)[C@H](O)[C@@H](O)[C@@H]1N[C@H]1C=C(CO)[C@@H](O)[C@H](O)[C@H]1O` (some centres unmarked) [Acarbose], the “IL6 Expression Levels” value by setting is: (human, 16 h, 1 μg/ml) 1.2 ± 0.1; (human, 16 h, 10 μg/ml) 1.5 ± 0.3; (human, 16 h, 100 μg/ml) 1.3 ± 0.2; (human, 16 h, 1000 μg/ml) 1.4 ± 0.4. The “IL8 Expression Levels” value is 0.5 ± 0.1 (human, 16 h, 1 μg/ml); 0.6 ± 0.2 (human, 16 h, 10 μg/ml); 0.4 ± 0.1 (human, 16 h, 100 μg/ml); 1.6 ± 0.2 (human, 16 h, 1000 μg/ml).

Take `CC(=O)Nc1ccc(O)cc1` [Acetaminophen]: the “IL6 Expression Levels” value is on record as 1.3 ± 0.0 (human, 16 h, 1 μg/ml); 1.2 ± 0.1 (human, 16 h, 10 μg/ml); 1.4 ± 0.2 (human, 16 h, 100 μg/ml); 0.3 ± 0.1 (human, 16 h, 1000 μg/ml). The “IL8 Expression Levels” value reads like this: (human, 16 h, 1 μg/ml) 0.8 ± 0.3; (human, 16 h, 10 μg/ml) 1.2 ± 0.2; (human, 16 h, 100 μg/ml) 0.5 ± 0.1; (human, 16 h, 1000 μg/ml) 0.1 ± 0.0.

Regarding `COc1cccc2c1cc([N+](=O)[O-])c1c(C(=O)O)cc3c(c12)OCO3` [Aristolochic acid], the “IL6 Expression Levels” value reads like this: under setting [1], 3.9 ± 0.5; under setting [2], 3.3 ± 0.2; under setting [3], 7.3 ± 1.6; under setting [4], 9.3 ± 0.5. The “IL8 Expression Levels” value is, setting by setting: under setting [1], 5.0 ± 0.8; under setting [2], 4.8 ± 0.6; under setting [3], 43.5 ± 7.2; under setting [4], 1.6 ± 0.9.

Regarding `O=[As]O[As]=O` (centres unmarked) [Arsenic (III) oxide], the “IL6 Expression Levels” value is, setting by setting: under setting [1], 1.5 ± 0.1; under setting [2], 5.2 ± 0.1; under setting [3], 14.2 ± 2.1; under setting [4], 8.2 ± 0.3. In addition, the “IL8 Expression Levels” value runs as follows: under setting [1], 1.2 ± 0.5; under setting [2], 4.2 ± 0.1; under setting [3], 1.5 ± 0.2; under setting [4], 3.9 ± 1.6.

Turning to `[Bi+3].[Bi+3].[O-2].[O-2].[O-2]` [Bismuth (III) oxide], the “IL6 Expression Levels” value came to 1.2 ± 0.1 under setting [1], 1.3 ± 0.2 under setting [2], 2.1 ± 0.1 under setting [3] and 3.6 ± 0.3 under setting [4]. Also, the “IL8 Expression Levels” value amounted to 0.4 ± 0.1 under setting [1], 2.6 ± 0.2 under setting [2], 33.0 ± 1.6 under setting [3] and 192.7 ± 18.4 under setting [4].

As for `[Cl][Cd][Cl]` [Cadmium chloride], the “IL6 Expression Levels” value under setting [1] was found to be 3.6 ± 0.4, the “IL6 Expression Levels” value under setting [2] is recorded as 10.9 ± 0.4, the “IL6 Expression Levels” value under setting [3] turned out to be 10.3 ± 1.6 and the “IL6 Expression Levels” value under setting [4] came to 11.8 ± 0.5. The “IL8 Expression Levels” value by setting is: under setting [1], 15.0 ± 0.8; under setting [2], 7.6 ± 0.4; under setting [3], 4.4 ± 0.6; under setting [4], 20.5 ± 8.3.

On to `[Cl][Cu][Cl]` [Copper (II) chloride], for which the “IL6 Expression Levels” value under setting [1] came to 1.2 ± 0.1, the “IL6 Expression Levels” value under setting [2] was determined as 2.2 ± 0.2, the “IL6 Expression Levels” value under setting [3] is on record as 22.5 ± 2.2 and the “IL6 Expression Levels” value under setting [4] is listed as 13.4 ± 0.0. Also, the “IL8 Expression Levels” value came out at 7.2 ± 0.6 under setting [1], 67.1 ± 18.1 under setting [2] and 58.2 ± 3.2 under setting [3].

For the compound `NCC(=O)O` [Glycine], the “IL6 Expression Levels” value worked out at 1.6 ± 0.1 (human, 16 h, 1 μg/ml); 1.9 ± 0.3 (human, 16 h, 10 μg/ml); 1.7 ± 0.2 (human, 16 h, 100 μg/ml); 1.9 ± 0.2 (human, 16 h, 1000 μg/ml). In addition, the “IL8 Expression Levels” value reads like this: (human, 16 h, 1 μg/ml) 1.6 ± 0.6; (human, 16 h, 10 μg/ml) 3.1 ± 1.5; (human, 16 h, 100 μg/ml) 2.5 ± 0.6; (human, 16 h, 1000 μg/ml) 4.9 ± 1.9.

In the case of `[Cl][Au]` [Gold (I) chloride], the “IL6 Expression Levels” value under setting [1] worked out at 1.2 ± 0.2, the “IL6 Expression Levels” value under setting [2] amounted to 1.2 ± 0.1, the “IL6 Expression Levels” value under setting [3] is recorded as 2.9 ± 0.2 and the “IL6 Expression Levels” value under setting [4] turned out to be 23.3 ± 0.4. Moreover, the “IL8 Expression Levels” value under setting [1] came out at 0.9 ± 0.2, the “IL8 Expression Levels” value under setting [2] was 0.9 ± 0.1, the “IL8 Expression Levels” value under setting [3] turned out to be 2.0 ± 0.0 and the “IL8 Expression Levels” value under setting [4] is listed as 1.2 ± 0.2.

Regarding `CC(=O)[O-].CC(=O)[O-].[Pb+2]` [Lead acetate], the “IL6 Expression Levels” value runs as follows: under setting [1], 1.3 ± 0.3; under setting [2], 1.2 ± 0.3; under setting [3], 1.5 ± 0.1; under setting [4], 4.3 ± 0.8. The “IL8 Expression Levels” value runs as follows: under setting [1], 0.4 ± 0.2; under setting [2], 1.3 ± 0.1; under setting [3], 5.0 ± 0.8; under setting [4], 29.4 ± 5.1.

For `CCC[C@@H]1C[C@@H](C(=O)N[C@@H]([C@H]2O[C@H](SC)[C@H](O)[C@@H](O)[C@H]2O)[C@@H](C)O)N(C)C1` [Lincomycin], the “IL6 Expression Levels” value is, setting by setting: (human, 16 h, 1 μg/ml) 1.2 ± 0.1; (human, 16 h, 10 μg/ml) 1.3 ± 0.1; (human, 16 h, 100 μg/ml) 1.2 ± 0.1; (human, 16 h, 1000 μg/ml) 1.4 ± 0.2. The “IL8 Expression Levels” value is, setting by setting: (human, 16 h, 1 μg/ml) 1.2 ± 1.2; (human, 16 h, 10 μg/ml) 1.2 ± 0.3; (human, 16 h, 100 μg/ml) 2.4 ± 0.9; (human, 16 h, 1000 μg/ml) 6.1 ± 0.5.

Consider `COc1ccc2[nH]cc(CCNC(C)=O)c2c1` [Melatonin], for which the “IL6 Expression Levels” value (human, 16 h, 1 μg/ml) turned out to be 6.5 ± 0.8; the “IL6 Expression Levels” value (human, 16 h, 10 μg/ml) stood at 6.1 ± 0.4; the “IL6 Expression Levels” value (human, 16 h, 100 μg/ml) is on record as 4.4 ± 0.4; the “IL6 Expression Levels” value (human, 16 h, 1000 μg/ml) is 1.1 ± 0.1. For the same compound, the “IL8 Expression Levels” value (human, 16 h, 1 μg/ml) turned out to be 9.8 ± 2.4; the “IL8 Expression Levels” value (human, 16 h, 10 μg/ml) came to 6.9 ± 1.0; the “IL8 Expression Levels” value (human, 16 h, 100 μg/ml) came out at 1.9 ± 0.9.

Turning to `CCOc1ccc(NC(C)=O)cc1` [Phenacetin], the “IL6 Expression Levels” value (human, 16 h, 1 μg/ml) was 7.2 ± 0.2; the “IL6 Expression Levels” value (human, 16 h, 10 μg/ml) is on record as 7.0 ± 1.1; the “IL6 Expression Levels” value (human, 16 h, 100 μg/ml) amounted to 5.3 ± 0.1; the “IL6 Expression Levels” value (human, 16 h, 1000 μg/ml) was found to be 0.7 ± 0.2. Further, the “IL8 Expression Levels” value is, setting by setting: (human, 16 h, 1 μg/ml) 23.3 ± 3.1; (human, 16 h, 10 μg/ml) 11.1 ± 0.8; (human, 16 h, 100 μg/ml) 7.7 ± 4.7; (human, 16 h, 1000 μg/ml) 6.4 ± 2.1.

Take `[K+].[K+].[O]=[Cr](=[O])([O-])[O][Cr](=[O])(=[O])[O-]` [Potassium dichromate]: the “IL6 Expression Levels” value runs as follows: under setting [1], 1.2 ± 0.4; under setting [2], 1.0 ± 0.0; under setting [3], 3.3 ± 0.3; under setting [4], 3.7 ± 0.4. Also, the “IL8 Expression Levels” value reads like this: under setting [1], 0.5 ± 0.0; under setting [2], 0.7 ± 0.1; under setting [3], 0.8 ± 0.0; under setting [4], 1.2 ± 0.0.

Regarding `COc1ccc(C[C@H](N)C(=O)N[C@H]2[C@@H](O)[C@H](n3cnc4c(N(C)C)ncnc43)O[C@@H]2CO)cc1` [Puromycin], the “IL6 Expression Levels” value reads like this: (human, 16 h, 1 μg/ml) 1.9 ± 0.2; (human, 16 h, 10 μg/ml) 14.1 ± 1.2; (human, 16 h, 100 μg/ml) 29.0 ± 1.2; (human, 16 h, 1000 μg/ml) 26.6 ± 4.3. The “IL8 Expression Levels” value runs as follows: (human, 16 h, 1 μg/ml) 0.8 ± 0.2; (human, 16 h, 10 μg/ml) 255.7 ± 28.2; (human, 16 h, 100 μg/ml) 3,284.1 ± 1,069.3; (human, 16 h, 1000 μg/ml) 3,852.3 ± 309.9.

In the case of `NC(=O)c1ncn([C@@H]2O[C@H](CO)[C@@H](O)[C@H]2O)n1` [Ribavirin], the “IL6 Expression Levels” value is given as 1.4 ± 0.1 (human, 16 h, 1 μg/ml); 1.5 ± 0.1 (human, 16 h, 10 μg/ml); 1.2 ± 0.3 (human, 16 h, 100 μg/ml); 1.0 ± 0.1 (human, 16 h, 1000 μg/ml). Moreover, the “IL8 Expression Levels” value reads like this: (human, 16 h, 1 μg/ml) 1.1 ± 0.4; (human, 16 h, 10 μg/ml) 0.5 ± 0.1; (human, 16 h, 100 μg/ml) 0.2 ± 0.0; (human, 16 h, 1000 μg/ml) 0.2 ± 0.0.

With `C=CC[C@@H]1/C=C(\C)C[C@H](C)C[C@H](OC)[C@H]2O[C@@](O)(C(=O)C(=O)N3CCCC[C@H]3C(=O)O[C@H](/C(C)=C/[C@@H]3CC[C@@H](O)[C@H](OC)C3)[C@H](C)[C@@H](O)CC1=O)[C@H](C)C[C@@H]2OC` [Tacrolimus], the “IL6 Expression Levels” value runs as follows: (human, 16 h, 1 μg/ml) 6.6 ± 0.6; (human, 16 h, 10 μg/ml) 6.1 ± 0.2. Moreover, the “IL8 Expression Levels” value (human, 16 h, 1 μg/ml) is reported as 7.8 ± 0.4 and the “IL8 Expression Levels” value (human, 16 h, 10 μg/ml) is listed as 5.1 ± 0.6.

On to `NC[C@H]1O[C@H](O[C@H]2[C@H](O)[C@@H](O[C@H]3O[C@H](CO)[C@@H](O)[C@H](N)[C@H]3O)[C@H](N)C[C@@H]2N)[C@H](N)C[C@@H]1O` [Tobramycin], for which the “IL6 Expression Levels” value (human, 16 h, 1 μg/ml) was 1.3 ± 0.1; the “IL6 Expression Levels” value (human, 16 h, 10 μg/ml) is on record as 1.3 ± 0.1; the “IL6 Expression Levels” value (human, 16 h, 100 μg/ml) is recorded as 1.4 ± 0.1; the “IL6 Expression Levels” value (human, 16 h, 1000 μg/ml) was determined as 2.7 ± 0.4. Moreover, the “IL8 Expression Levels” value is reported as 0.5 ± 0.1 (human, 16 h, 1 μg/ml); 0.6 ± 0.1 (human, 16 h, 10 μg/ml); 0.9 ± 0.3 (human, 16 h, 100 μg/ml); 25.5 ± 1.5 (human, 16 h, 1000 μg/ml).
